Data published in the NIST ThermoML archive (doi:10.1021/je200806n).
± gives the expanded uncertainty stated by the source.

Assay: xn = mol fraction of the nth substance listed
Details: 101.3 kPa, Liquid

O=C1CCCCC1 [cyclohexanone] + CCC(C)O
Details	mass density, 298.15 K [kg/m3]	mass density, 303.15 K [kg/m3]	mass density, 308.15 K [kg/m3]	mass density, 313.15 K [kg/m3]	viscosity, 298.15 K [mPa·s]	viscosity, 303.15 K [mPa·s]	viscosity, 308.15 K [mPa·s]	viscosity, 313.15 K [mPa·s]
x1 = 0.0814	814.99 ± 0.55	811.03 ± 0.55	805.17 ± 0.56	800.53 ± 0.56	2.511 ± 0.031	2.163 ± 0.027	1.828 ± 0.023	1.441 ± 0.019
x1 = 0.1598	826.39 ± 0.53	822.21 ± 0.54	816.34 ± 0.54	811.48 ± 0.55	2.067 ± 0.026	1.82 ± 0.023	1.561 ± 0.02	1.186 ± 0.016
x1 = 0.2444	838.54 ± 0.52	834.13 ± 0.52	828.18 ± 0.53	823.15 ± 0.54	1.737 ± 0.022	1.535 ± 0.02	1.33 ± 0.017	0.982 ± 0.013
x1 = 0.3514	853.71 ± 0.5	849.09 ± 0.5	843.19 ± 0.51	838.01 ± 0.52	1.472 ± 0.019	1.305 ± 0.017	1.128 ± 0.015	0.841 ± 0.011
x1 = 0.4404	866.19 ± 0.48	861.39 ± 0.49	855.62 ± 0.5	850.33 ± 0.5	1.361 ± 0.018	1.206 ± 0.016	1.039 ± 0.014	0.794 ± 0.011
x1 = 0.5596	882.62 ± 0.46	877.71 ± 0.47	872.19 ± 0.48	866.91 ± 0.48	1.332 ± 0.017	1.183 ± 0.015	1.036 ± 0.014	0.825 ± 0.011
x1 = 0.6523	895.31 ± 0.45	890.36 ± 0.45	884.99 ± 0.46	879.69 ± 0.47	1.4 ± 0.018	1.249 ± 0.016	1.108 ± 0.015	0.914 ± 0.012
x1 = 0.738	906.94 ± 0.43	901.93 ± 0.44	896.81 ± 0.45	891.52 ± 0.45	1.501 ± 0.019	1.354 ± 0.018	1.224 ± 0.016	1.051 ± 0.014
x1 = 0.8494	921.86 ± 0.42	916.99 ± 0.42	912.09 ± 0.43	907.01 ± 0.43	1.704 ± 0.022	1.558 ± 0.02	1.41 ± 0.018	1.248 ± 0.016
x1 = 0.9361	933.34 ± 0.4	928.57 ± 0.41	924.04 ± 0.41	918.99 ± 0.42	1.889 ± 0.024	1.716 ± 0.022	1.572 ± 0.02	1.43 ± 0.018
x1 = 1	941.91 ± 0.39	937.24 ± 0.4	932.67 ± 0.4	927.72 ± 0.41	2.057 ± 0.026	1.847 ± 0.023	1.694 ± 0.021	1.546 ± 0.02

O=C1CCCCC1 [cyclohexanone] + CCCC(C)O
x1 = 1
Details	mass density [kg/m3]	viscosity [mPa·s]
298.15 K	941.91 ± 0.39	2.057 ± 0.026
303.15 K	937.24 ± 0.4	1.847 ± 0.023
308.15 K	932.67 ± 0.4	1.694 ± 0.021
313.15 K	927.72 ± 0.41	1.546 ± 0.02
